ChEMBL document CHEMBL1201862, “PubChem BioAssay data set” (2004)
Active and inactive are the calls of the source. For most assays here, no stated cut-off is given here; in the data, actives have a measured EC50 and inactives only a lower limit.

Legend:
[1] = target: Aspartyl aminopeptidase (Plasmodium falciparum 3D7, UniProt Q8I2J3)
[2] = Luminescence Cell-Based Dose Retest to Confirm Inhibitors of Cancer Stem Cells. [Related pubchem assays (depositor defined):AID2717, AID2721]; format: functional; conditions: Homo sapiens
[3] = target: Procathepsin L (Homo sapiens, UniProt P07711)
Chain of Procathepsin L (P07711 whole entry): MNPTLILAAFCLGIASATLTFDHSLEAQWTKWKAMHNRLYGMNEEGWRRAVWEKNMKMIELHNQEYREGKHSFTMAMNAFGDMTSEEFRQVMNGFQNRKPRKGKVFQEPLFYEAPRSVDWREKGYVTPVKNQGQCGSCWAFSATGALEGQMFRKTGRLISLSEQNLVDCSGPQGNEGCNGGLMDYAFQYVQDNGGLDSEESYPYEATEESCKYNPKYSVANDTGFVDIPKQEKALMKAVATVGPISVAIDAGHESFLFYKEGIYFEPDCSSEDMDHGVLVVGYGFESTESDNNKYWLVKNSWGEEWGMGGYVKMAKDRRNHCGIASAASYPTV

[4] = growth suppression of beta-catenin-knockout colon cells, dose response, cell-based, HCT116, human colon tumor (AID 1045); format: functional;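 further: HCT116 colon tumor cells with beta catenin knocked out; cells exposed to compound for 60 hours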
[5] = target: Mu-type opioid receptor (Homo sapiens, UniProt P35372); format: functional, cell-based;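 further: U2OS cells with beta-arrestin recruitment to OPRM1 by beta-gal complementation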
Chain of Mu-type opioid receptor (P35372 whole entry): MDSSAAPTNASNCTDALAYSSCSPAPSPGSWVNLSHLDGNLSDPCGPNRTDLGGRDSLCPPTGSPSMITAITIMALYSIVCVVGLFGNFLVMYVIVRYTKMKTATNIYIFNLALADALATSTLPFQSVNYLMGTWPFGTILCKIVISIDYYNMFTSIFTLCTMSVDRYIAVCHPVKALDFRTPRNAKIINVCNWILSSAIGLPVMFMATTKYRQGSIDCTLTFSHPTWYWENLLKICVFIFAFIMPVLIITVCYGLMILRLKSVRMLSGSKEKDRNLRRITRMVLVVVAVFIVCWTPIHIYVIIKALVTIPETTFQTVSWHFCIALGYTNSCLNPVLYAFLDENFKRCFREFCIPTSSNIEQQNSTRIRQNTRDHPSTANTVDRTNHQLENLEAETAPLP

[6] = target: 5-hydroxytryptamine receptor 1A (Homo sapiens, UniProt P08908); format: functional
Chain of 5-hydroxytryptamine receptor 1A (P08908 whole entry): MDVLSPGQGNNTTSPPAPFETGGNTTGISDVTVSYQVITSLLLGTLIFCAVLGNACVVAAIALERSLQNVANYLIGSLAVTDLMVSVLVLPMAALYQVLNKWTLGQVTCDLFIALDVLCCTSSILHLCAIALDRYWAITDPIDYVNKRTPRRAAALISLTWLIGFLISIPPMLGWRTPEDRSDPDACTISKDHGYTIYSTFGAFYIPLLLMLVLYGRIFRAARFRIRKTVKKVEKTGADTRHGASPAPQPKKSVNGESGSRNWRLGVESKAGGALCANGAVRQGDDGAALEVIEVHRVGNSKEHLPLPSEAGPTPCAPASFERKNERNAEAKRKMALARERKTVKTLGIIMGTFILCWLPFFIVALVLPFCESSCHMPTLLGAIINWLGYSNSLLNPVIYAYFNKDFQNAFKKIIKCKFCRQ

[7] = growth suppression of PTEN-null colon cells, dose response, cell-based, HCT116 PTEN knockout (AID 1047); format: functional;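 further: HCT116 colon tumor cells with PTEN knocked out; cells exposed to compound for 60 hours before readout; potency for loss of cell viability measured by luminescence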
[8] = target: 5-hydroxytryptamine receptor 2A (Mus musculus, UniProt P35363); format: functional, cell-based;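 further: CHO-K1 cells with tagged receptor and beta-arrestin; agonist potency measured as compound-induced activation of the receptor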
Chain of 5-hydroxytryptamine receptor 2A (P35363 whole entry): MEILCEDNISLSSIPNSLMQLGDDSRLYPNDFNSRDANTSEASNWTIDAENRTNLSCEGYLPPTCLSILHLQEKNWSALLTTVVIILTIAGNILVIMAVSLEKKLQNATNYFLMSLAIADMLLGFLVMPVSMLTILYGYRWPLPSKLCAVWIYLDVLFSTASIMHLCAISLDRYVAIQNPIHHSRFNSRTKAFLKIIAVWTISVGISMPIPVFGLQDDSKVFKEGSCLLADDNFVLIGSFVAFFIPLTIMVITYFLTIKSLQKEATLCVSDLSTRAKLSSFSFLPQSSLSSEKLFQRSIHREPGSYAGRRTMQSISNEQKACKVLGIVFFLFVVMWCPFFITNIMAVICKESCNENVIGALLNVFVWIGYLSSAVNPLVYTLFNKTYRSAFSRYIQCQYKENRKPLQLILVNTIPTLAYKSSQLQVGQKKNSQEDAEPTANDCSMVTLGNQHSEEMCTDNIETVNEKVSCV

[9] = test system: BJ; test: cells; format: functional, cell-based; conditions: Homo sapiens
[10] = Luminescence Cell-Based Dose Response HTS to Identify Inhibitors of 5'UTR Stem-Loop Driven Prion Protein mRNA Translation in H4 Neuroglioblastoma Cells. [Related pubchem assays: 1827 (Project Summary), 1813 (Primary HTS)]; format: functional
[11] = inhibitors of SNCA 5'UTR-driven translation, confirmation, luminescence, H4 neuroglioblastoma cells, dose confirmation (AID 2454); format: functional, cell-based;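 further: H4 neuroglioblastoma cells carrying an alpha-synuclein 5'UTR luciferase reporter; potency for inhibition of the luciferase signal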
[12] = test system: BJ; test: cytotoxicity toward Ras-transformed BJeLR fibroblasts, dose response, cell-based, alamar blue fluorescence, cherrypicked samples (AID 2631); format: functional; conditions: Homo sapiens;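 further: confirmatory dose-response assay in RAS-dependent BJ fibroblasts engineered with TERT, LT and ST, with cytotoxicity read by fluorescence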
[13] = Luminescence-based dose response cell-based high throughput screening assay for cytotoxic compounds using the IEC-6 intestinal epithelial cell line. [Related pubchem assays: 1858 (Summary AID.), 1825 (Counterscreen.), 1907 (Confirmation screen.)]; format: functional
[14] = inhibitors of firefly luciferase expression or activity, dose response, H4 neuroglioma cells, luminescence (AID 1990); format: functional, cell-based
[15] = cells; format: functional, cell-based
[16] = cytotoxicity toward DRD oncogenic fibroblasts, dose response, cell-based, non-viral oncogenic, luminescence (AID 1934); format: functional; conditions: Homo sapiens
[17] = test system: BJ; test: cytotoxicity toward BJ-TERT-LT-ST fibroblasts, dose response, cell-based, RAS-independent, luminescence (AID 1935); format: functional; conditions: Homo sapiens;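 further: BJ fibroblasts immortalized with TERT plus LT and ST oncogenes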
[18] = test system: BJ; test: cytotoxicity toward BJ-TERT fibroblasts, dose response, cell-based, RAS-independent, luminescence (AID 1933); format: functional; conditions: Homo sapiens
[19] = inhibitors of SNCA 5'UTR-driven reporter translation, confirmation, H4 neuroglioma cells, luminescence (AID 1988); format: functional, cell-based
[20] = luciferase reporter signal reduction – luminescence, H4-C neuroglioblastoma cells, dose response (AID 2458); format: functional, cell-based;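 further: H4 neuroglioblastoma cells stably carrying a luciferase reporter gene fusion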
[21] = target: Prothrombin (Homo sapiens, UniProt P00734); test: Thrombin 1536 HTS Dose Response Confirmation. [Related pubchem assays: 1046 (Thrombin 1536 HTS; hits were confirmed in this assay)]; format: functional
[22] = target: Epstein-Barr nuclear antigen 1 (Epstein-Barr virus (strain B95-8) (HHV-4) (Human herpesvirus 4), UniProt P03211); test: EBNA-1 inhibitors, dose response, biochemical, fluorescence polarization, 1536-well (AID 2381); parameters: species or system human gammaherpesvirus 4;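 further: fluorescence polarization of a Cy5 DNA probe bound by EBNA-1 protein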
Chain of Epstein-Barr nuclear antigen 1 (P03211 whole entry): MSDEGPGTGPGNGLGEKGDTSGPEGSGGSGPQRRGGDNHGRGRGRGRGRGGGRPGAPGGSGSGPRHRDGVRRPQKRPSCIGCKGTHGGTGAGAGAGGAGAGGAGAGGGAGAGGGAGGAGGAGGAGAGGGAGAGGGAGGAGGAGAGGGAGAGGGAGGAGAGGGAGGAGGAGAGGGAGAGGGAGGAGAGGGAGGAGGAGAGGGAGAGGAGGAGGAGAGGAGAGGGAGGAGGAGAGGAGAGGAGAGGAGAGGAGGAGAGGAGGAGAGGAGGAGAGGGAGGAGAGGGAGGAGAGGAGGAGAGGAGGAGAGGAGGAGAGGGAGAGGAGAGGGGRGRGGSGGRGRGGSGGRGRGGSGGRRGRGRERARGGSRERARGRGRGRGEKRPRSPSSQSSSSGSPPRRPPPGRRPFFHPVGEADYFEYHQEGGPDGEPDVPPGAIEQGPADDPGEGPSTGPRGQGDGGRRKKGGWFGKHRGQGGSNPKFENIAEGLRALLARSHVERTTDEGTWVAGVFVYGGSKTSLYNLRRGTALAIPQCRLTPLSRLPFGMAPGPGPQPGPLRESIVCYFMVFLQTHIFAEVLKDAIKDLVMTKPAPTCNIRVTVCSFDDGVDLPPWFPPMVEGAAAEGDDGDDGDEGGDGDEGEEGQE

[23] = target: Lytic switch protein BZLF1 (Epstein-Barr virus (strain B95-8) (HHV-4) (Human herpesvirus 4), UniProt P03206); test: EBV ZTA inhibitors, dose response, counter-screen for EBNA-1 inhibitor project, biochemical, fluorescence polarization, Epstein-Barr virus, 1536-well (AID 2377); parameters: species or system human gammaherpesvirus 4;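 further: fluorescence polarization of Cy5-labelled ZRE DNA probe bound by purified Zta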
Chain of Lytic switch protein BZLF1 (P03206 whole entry): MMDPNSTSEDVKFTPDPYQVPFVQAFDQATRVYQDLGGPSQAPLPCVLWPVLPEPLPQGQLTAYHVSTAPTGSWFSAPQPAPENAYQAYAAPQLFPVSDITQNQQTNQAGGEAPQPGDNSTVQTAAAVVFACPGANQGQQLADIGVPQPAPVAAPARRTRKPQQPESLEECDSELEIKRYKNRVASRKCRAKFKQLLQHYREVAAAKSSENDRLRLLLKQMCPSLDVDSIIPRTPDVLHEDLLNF

[24] = microbe, parasite or virus in culture; format: functional; conditions: Mycobacterium tuberculosis
[25] = cytotoxicity in HPDE-C7 cells, cell-based, fluorescence, HTS (AID 430); format: functional; conditions: Homo sapiens
[26] = cytotoxicity in KRAS-transformed pancreatic duct cells, primary screen, cell-based, fluorescence, HTS (AID 431); format: functional; conditions: Homo sapiens;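 further: cell line used: HPDE-C7K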
[27] = cytotoxicity toward NIH3T3 fibroblasts, dose response, counter-screen, cell-based, ATP luminescence, mouse fibroblasts (AID 2010); format: functional;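 further: cells exposed to compound for about 90 hours before reading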
[28] = Luminescence Cell-Based Dose Confirmation HTS to Identify Inhibitors of Platelet Dense Granule Release. [Related pubchem assays: 1663 (Primary HTS), 1678 (Summary of Project)]; format: functional
[29] = inhibitors of intracellular T. cruzi replication, confirmation, NIH3T3 host cells, beta-gal luminescence (AID 2044); format: functional, cell-based;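 further: intracellular parasites grown in NIH/3T3 mouse fibroblasts as host cells; luminescent beta-galactosidase reporter signal from transgenic T. cruzi replicating inside host cells; inhibitors lower the luminescence signal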
[30] = target: Luciferin 4-monooxygenase (Photinus pyralis, UniProt P08659); test: firefly luciferase enzyme inhibitors, dose response, biochemical, luminescence (AID 1891)
Chain of Luciferin 4-monooxygenase (P08659 whole entry): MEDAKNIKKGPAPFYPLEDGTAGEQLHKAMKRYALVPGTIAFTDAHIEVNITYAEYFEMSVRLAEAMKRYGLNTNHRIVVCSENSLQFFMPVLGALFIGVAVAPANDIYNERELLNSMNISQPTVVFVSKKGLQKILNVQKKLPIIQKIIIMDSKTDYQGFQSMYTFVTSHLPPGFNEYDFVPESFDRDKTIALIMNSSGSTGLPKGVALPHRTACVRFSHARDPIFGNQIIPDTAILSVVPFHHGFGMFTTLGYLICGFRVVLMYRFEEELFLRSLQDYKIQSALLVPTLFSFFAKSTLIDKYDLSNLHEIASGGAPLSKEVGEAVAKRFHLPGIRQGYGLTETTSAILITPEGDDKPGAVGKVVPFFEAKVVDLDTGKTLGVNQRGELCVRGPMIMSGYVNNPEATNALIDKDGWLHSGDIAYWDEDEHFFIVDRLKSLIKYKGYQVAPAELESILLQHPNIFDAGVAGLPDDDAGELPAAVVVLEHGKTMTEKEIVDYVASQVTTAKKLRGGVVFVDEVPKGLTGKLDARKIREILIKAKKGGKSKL
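Wherever AC50 is given: cells exposed to compound for roughly 70 hours or longer before luminescence read.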

Chain of Aspartyl aminopeptidase (Q8I2J3 whole entry): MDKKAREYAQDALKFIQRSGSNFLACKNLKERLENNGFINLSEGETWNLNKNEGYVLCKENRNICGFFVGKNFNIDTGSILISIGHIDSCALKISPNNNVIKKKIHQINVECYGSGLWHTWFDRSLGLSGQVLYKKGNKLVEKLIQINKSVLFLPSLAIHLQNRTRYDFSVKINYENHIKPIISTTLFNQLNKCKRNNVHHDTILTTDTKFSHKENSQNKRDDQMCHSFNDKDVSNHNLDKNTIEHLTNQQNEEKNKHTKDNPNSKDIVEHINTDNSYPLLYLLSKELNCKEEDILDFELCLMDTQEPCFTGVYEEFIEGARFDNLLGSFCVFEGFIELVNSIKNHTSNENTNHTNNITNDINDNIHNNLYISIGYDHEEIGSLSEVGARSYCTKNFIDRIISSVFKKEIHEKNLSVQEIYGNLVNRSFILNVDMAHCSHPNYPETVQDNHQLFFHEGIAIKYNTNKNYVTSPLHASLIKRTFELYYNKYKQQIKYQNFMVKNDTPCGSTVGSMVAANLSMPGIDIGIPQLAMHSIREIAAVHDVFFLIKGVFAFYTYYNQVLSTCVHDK

## COCC(C)NC(=O)NC1(C(F)(F)F)Oc2ccc(Cl)cc2O1 (stereo not given)
[1]
  IC50: 1.79 µM (active)
[2]
  AC50: 6.69 µM (active)
[3]
  IC50: > 59.6 µM (not active)

## CCCCc1ccc2[nH]cc(CCN)c2c1
[4]
  EC50: 12.6 µM (active)
[5]
  EC50: 92.5 µM (inactive)
[6]
  EC50: 1.81 µM (active)
[7]
  EC50: 10.6 µM (active)
[8]
  EC50: 13.3 µM (inactive)

## O=C(NCCOc1cccnc1)c1ccc(OC2CCN(Cc3ccccn3)CC2)cc1
[9]
  EC50: 0.334 µM (inconclusive)
[10]
  EC50: 0.202 µM (inconclusive)
[11]
  EC50: 0.623 µM (active)
[12]
  EC50: 0.254 µM (active)
[13]
  IC50: 0.0533 µM (active)
[14]
  EC50: 0.158 µM (active)
[15]
  EC50: 0.577 µM (active)
[16]
  EC50: 3.96 µM (active)
[17]
  EC50: 0.543 µM (inconclusive)
[18]
  EC50: 78.3 µM (active)
[19]
  EC50: < 0.1 µM (active)
[20]
  EC50: 0.821 µM (active)

## COC(=O)c1c(C)nn(-c2ccccc2)c1-n1cccc1
[21]
  IC50: > 50 µM (not active)

## COc1ccc(NC(=NC(C)=O)Nc2nc(C)cc(C)n2)cc1OC
[21]
  IC50: 2.95 µM (active)

## Cc1ccccc1N(C(=O)c1snc(C(N)=O)c1N)C(C(=O)NCC1CCCO1)c1ccc(N(C)C)cc1 (stereo not given)
[22]
  IC50: 13.6 µM (not active)
[23]
  IC50: > 111 µM (not active)

## CCCc1cc(-c2nc(N)ncc2-c2ccc3c(c2)OCCCO3)c(O)cc1OC
[10]
  EC50: > 120 µM (not active)
[24]
  CC50: > 40 µM (active)
[25]
  EC50: 6.37 µM (active)
[14]
  EC50: 14.7 µM (active)
[26]
  EC50: 5.93 µM (active)
[27]
  EC50: 21 µM (active)
[28]
  EC50: > 112 µM (not active)
[2]
  AC50: 3.81 µM (active)
[29]
  EC50: 0.884 µM (active)
[30]
  EC50: > 112 µM (not active)
[19]
  EC50: > 120 µM (not active)
